Measured values reported in US20240009122A1, “Small Molecule Formulation” (Dialectic Therapeutics, Inc., priority 2020, published 2024).

Assay: Solubility of Compound 1 (statement)
Assay type: physicochemical
Source text: While Compound 1 is an example of a small molecule with a number of polar functional groups. […] These organic polar solvents, however, are not typically pharmaceutically acceptable for use in drug formulation.

Cc1ncsc1-c1ccc([C@H](C)NC(=O)[C@@H]2C[C@@H](O)CC2C(=O)[C@@H](NC(=O)CCCCCC(=O)N2CCN(CC[C@H](CSc3ccccc3)Nc3ccc(S(=O)(=O)NC(=O)c4ccc(N5CCN(CC6=C(c7ccc(Cl)cc7)CCC(C)(C)C6)CC5)cc4)cc3S(=O)(=O)C(F)(F)F)CC2)C(C)(C)C)cc1 (some centres unmarked) [Compound 1]
Solubility in organic polar solvents: sufficiently soluble | Solubility in water or water based solvent mixtures: not sufficiently soluble
